Measured values as given in patent publication US12589090B2, “Compounds and methods for the treatment of degenerative disorders” (Aquilus Pharmaceuticals, Inc., priority 2019, dated 2026).

Key:
[1] = Solubility testing (Example 27); format: physicochemical; conditions: for solubility in water: as the free acid
[2] = Dissociation constant; format: physicochemical
[3] = test system: caspase-3; assay: Caspase-3 immunohistochemistry (optical density) in spinal cord and sciatic nerve of STZ diabetic rats (Example 18); format: in vivo, Wistar rats
Protocol: Sections from the biopsy specimens (brain and spinal tissue) were formalin-fixed and paraffin-embedded. For IHC examination, slides from the spinal cord and sciatic nervous were evaluated for caspase-3 (cas-3). Serial 3-5-μm thick sections were cut from paraffin embedded tissue blocks. For subsequent IHC staining glass slices were exposed to hot unmasking fluidized citrate buffer pH 6.0 for 15-18 min. After cooling, the glass with the slice was transferred into phosphate-buffered saline (PBS) pH 7.4. The sections were deparaffinized and then rehydrated in alcohol to tris-buffered saline. Endogenous peroxidase activity was blocked using 3% hydrogen peroxide followed by a protein block with 5% goat serum.
Affinity purified monoclonal IgG1, Caspase-3 p11 antibodies (sc-271759; Santa Cruz BioTechnology Inc., Dallas, TX, USA) were used as the primary antibody and applied at a 1:50 dilution 100 μl/glass for 30 min at room temperature. […]
Immunohistochemistry: Sections from the biopsy specimens were formalin-fixed and paraffin-embedded. For immunohistochemistry (IHC) examination, slides from the spinal cord and sciatic nervous were evaluated for caspase-3. […] (4 per group) and three sections from each animal were used for quantitative immunohistochemistry (12 measuring per each group). […]

[4] = In-vivo oral rat pharmacokinetics (Example 15); conditions: male Sprague-Dawley rats, dose level 10 mg/kg, 0.5% MC, plasma, mean
Protocol: Understanding the pharmacokinetics in species typically employed in preclinical animal testing is an essential component of drug discovery. […] Procedure: Six (6) male Sprague-Dawley rats were used. Fasting was conducted at least 16 hours prior to dose administration. Food was returned at approximately 4 hours post dose. The animals were placed into 2 groups of 3 animals per group. The oral (PO) formulation for Groups 1 & 2 were prepared on the day of dosing at a target concentration of 0.5 mg/mL in 0.5% Methylcellulose (400 cps) to produce a white, homogeneous suspension. Dosing was performed as outlined in Table 1:
Whole blood samples (0.250 mL; K2EDTA anticoagulant) were collected from each animal through a jugular vein catheter. Whole blood samples were collected from all animals pre-dose, and at 0.25, 0.5, 1, 2, 4, 8, 16, and 24 hours after dose administration. All blood samples were immediately placed on ice until processing. Whole blood samples were centrifuged at 2200×g for 10 minutes in a refrigerated centrifuge (5±3° C.) to isolate plasma. The plasma samples were transferred to individual polypropylene vials and immediately placed on dry ice before storage at nominally −20±5° C. The plasma samples sometime later were then thawed and extracted and analyzed by high pressure liquid chromatography (HPLC) coupled to Mass Spectrometry (MS) (Table 2). Pharmacokinetic parameters (Table 3) were estimated using WinNonlin® pharmacokinetic software (Version No. 5.2.1) using a non-compartmental approach consistent with the PO route of administration.

[5] = test system: STZ-induced diabetic rats; assay: STZ-induced diabetic rat model, blood glucose concentration and HbA1c (Example 18); format: in vivo, Wistar rats
Protocol: (§1) Male Wistar rats (300-350 g) at the beginning of the experiment were used. A single dose (65 mg/kg, i.p.) of Streptozotocin (STZ) with 230 mg/kg (i.p) of nicotinamide were used for induction of diabetes in rats. The STZ was freshly dissolved in citrate buffer. Age matched control rats received the equal volume of the citrate buffer only. Forty days after injection of either STZ or citrate buffer, the rats were tested for diabetes mellitus (DM) using a drop of blood from the tail vein. The estimation of blood glucose level was made using OneTouch Select® Glucometer (LifeScan, Inc., USA). Rats with plasma glucose level>8 mmol/1 (145 mg/dl) were considered as diabetic. Following the diagnosis of DM, age matched healthy control and STZ-induced diabetic rats were divided randomly into four groups each containing six rats. Glucose level was estimated on weekly basis during the experiment.
(§2) Experimental design and drug treatment: Six weeks after the diabetic induction age matched healthy control and STZ-induced diabetic rats were divided randomly into four groups each containing six rats: naïve rats, vehicle (0.5% methylcellulose) treated DM group, 70 mg/kg (in 0.5% methylcellulose) Compound 5-treated DM group, 140 mg/kg (in 0.5% methylcellulose) Compound 5-treated DM group.

[6] = test system: STZ-induced diabetic rats; assay: STZ-induced diabetic rat model, tactile allodynia (Example 18); format: in vivo, Wistar rats
Protocol: as §1, §2
Behavioral testing: Tactile allodynia. […] The paw withdrawal thresholds were determined. […] The psychophysical 50% threshold was then calculated.
Data analysis: The results are presented as mean±SEM. In chronic pain experiment, four rats were excluded from the statistical analysis because the paw withdrawal threshold was >8 g (criterion taken from the study. Paw withdrawal threshold data were subjected to analysis of variance (ANOVA, General Linear Model procedure) with Dunnett's post hoc test was applied for between-group pair wise comparisons. Effects of Compound 5 on immunohistochemistry parameters were analyzed by one-way ANOVA (factors: Compound 5 treatment) followed by the Dunnett's test. Data were analyzed using SAS-STAT (SAS v.9.4, SAS Institute Inc., Cary, NC, USA). Data were considered significant at P<0.05.

| solubility in DMSO, acetone and methanol [1] | solubility in water [1] | dissociation constant [2] | AUC(0-inf) [4] | AUC(0-t) [4] | Cmax [4] | half-life [4] | Compound | expression of caspase-3 in sciatic nerve ([3]; both doses (70 and 140 mg/kg), vs. vehicle-treated DM group) | caspase-3 in spinal cord ([3]; vs. vehicle group) | glycosylated hemoglobin (HbA1c) level ([5]; STZ diabetic rats treated during 2 weeks, vs. untreated DM rats) | blood glucose concentration ([5]; STZ diabetic rats, 70 or 140 mg/kg) | tactile allodynia (paw withdrawal threshold), post hoc analysis ([6]; 70 mg/kg, 14 days treatment, p<0.05 vs. vehicle) | tactile allodynia (paw withdrawal threshold) ([6]; 140 mg/kg, 14 days treatment) | threshold of the nociceptive response (tactile allodynia) ([6]; after 14 days of treatment) |
| --- | --- | --- | --- | --- | --- | --- | --- | --- | --- | --- | --- | --- | --- | --- |
| soluble | poorly soluble | around 3.4 | 5150 ng·h/mL | 5120 ng·h/mL | 1580 ng/mL | 1.28 h | Cc1ccc(C#Cc2ccc(S(=O)(=O)N[C@H](Cc3c[nH]c4ccccc34)C(=O)O)s2)cc1 [Compound 5, (R)-3-(1H-Indol-3-yl)-2-(5-p-tolylethynyl-thiophene-2-sulfonylamino)-propionic acid] | significant reduction | statistically significant change | not significantly changed | no significant effects | confirmed the effect | tendency to the analgesic effect | significantly decreased |
| soluble | poorly soluble | around 3.4 | – | – | – | – | [2H]c1[nH]c2c([2H])c([2H])c([2H])c([2H])c2c1C[C@@H](NS(=O)(=O)c1ccc(C#Cc2ccc(C)cc2)s1)C(=O)O [Compound 82] | – | – | – | – | – | – | – |
